According to US20110318397A1, “METHOD FOR PREPARING HIGH PURITY GINSENOSIDE RD USING LACTOBACILLUS CASEI AND COSMETIC COMPOSITION FOR ANTI-WRINKLE COMPRISING THE HIGH PURITY GINSENOSIDE RD” (priority 2010, published 2011):
Like-named read-outs stand apart in the source and are kept apart here.

How the values were obtained:
[1] = tested on: Human fibroblasts (WI-38); assay: Collagen synthesis, procollagen type-I C-peptide kit; type: cell-based; details: WI-38 fibroblasts, 24 h; for collagen production as compared to the control (sample-untreated cells): 1×10^−4% (w/v) or lower
Protocol: Human fibroblasts (WI-38) that had been stored at −80° C. or in liquid nitrogen were used. The cells were uniformly placed on a 96-well plate, with 2.0×10^4 cells/well.
After culturing in MEM (FBS 5%) for 24 hours, the medium was replaced with a fresh serum-free medium and the cells were treated with gradually diluted sample. […] After treatment with the sample, the cells were further cultured for 24 hours on a 96-well plate. Then, the quantity of collagen was measured using a collagen measurement kit (Procollagen type-I C-peptide MK101, Takara).

human fibroblasts = tested on: human fibroblasts
Protocol: MTT [3-(4,5-dimethylthiazol-2-yl)-2,5-diphenyltetrazolium bromide, Sigma M5655] assay was carried out to test the effect of the sample on proliferation of human fibroblasts.
The fibroblasts that had been stored at −80° C. or in liquid nitrogen were used. The cells were uniformly placed on a 96-well plate, with 2.0×10^4 cells/well. After culturing in MEM (FBS 5%) for 24 hours, the medium was replaced with a fresh serum-free medium and the cells were treated with gradually diluted sample. The samples were ginsenoside Rd and retinol. After treatment with the sample, the cells were further cultured for 24 hours on a 96-well plate. Subsequently, after adding 10 μL of MTT solution (5 mg/mL) to each well, the cells were cultured for 4 hours. After removing the medium and adding 100 μL of dimethyl sulfoxide to each well followed by shaking for 10 minutes, absorbance was measured at 540 nm using an ELISA reader.

CC1=C(/C=C/C(C)=C/C=C/C(C)=C/CO)C(C)(C)CCC1 [Retinol, retinol, reference compound]
maximum collagen production ([1]; at 1×10^−2 (w/v) or lower): 30% | cell viability (human fibroblasts; human, 24 h): 100%

CC(C)=CCC[C@](C)(O)[C@H]1CC[C@]2(C)[C@@H]1[C@H](O)C[C@@H]1[C@@]3(C)CC[C@H](O)C(C)(C)[C@@H]3[C@@H](O[C@@H]3O[C@H](CO)[C@@H](O)[C@H](O)[C@H]3O[C@@H]3O[C@@H](C)[C@H](O)[C@@H](O)[C@H]3O)C[C@]12C [Rg2, ginsenoside Rg2]
collagen production as compared to the control (sample-untreated cells) [1]: remarkably decreased collagen production

CC(C)=CCC[C@](C)(O[C@@H]1O[C@H](CO)[C@@H](O)[C@H](O)[C@H]1O)[C@H]1CC[C@]2(C)[C@@H]1[C@H](O)C[C@@H]1[C@@]3(C)CC[C@H](O[C@@H]4O[C@H](CO)[C@@H](O)[C@H](O)[C@H]4O[C@@H]4O[C@H](CO)[C@@H](O)[C@H](O)[C@H]4O)C(C)(C)[C@@H]3CC[C@]12C [ginsenoside Rd]
collagen production as compared to the control (sample-untreated cells) [1]: slightly decreased collagen production | cell viability (human fibroblasts): 100% | cytotoxicity (human fibroblasts): no cytotoxicity
